Assay results published in publication PMC10054477, “Design, Synthesis, and Biological Evaluation of Sulfonamide Methoxypyridine Derivatives as Novel PI3K/mTOR Dual Inhibitors” (Pharmaceuticals, 2023).

How the values were obtained:
[1] = target: T1, PI3Kα (Homo sapiens, UniProt P42336); assay: ADP-Glo kinase assay, PI3Kα enzyme inhibition; format: biochemical; conditions: for inhibition at 0.001 µM: at 1 nM; for IC50: mean (n = 2)
T1 construct: purchased SignalChem P27-122DH
Description: The enzymatic inhibitory assays of all target compounds against PI3Kα were performed with the ADP-Glo assay (Promega, Madison, WI, USA, catalog No. V9102/3). Briefly, compounds were continuously diluted to a certain concentration. […] The mixture was added to a 96-well plate and incubated in a dark place at ambient temperature for 40 min. Then, the kinase reaction was stopped by adding of ADP-Glo reagent and the plate was incubated again at ambient temperature for another 40 min. The kinase detection reagent was added and the signal was collected via PerkinElmer Envision plate reader (PE, Boston, MA, USA).

[2] = system: MCF-7 cells; assay: CCK-8 cell viability assay, MCF-7; format: cell-based; conditions: Homo sapiens, MCF7, 72 h, mean (n = 3)
Description: (§1) MCF-7 and HCT-116 cells were purchased from the Meilunbio Biotechnology Co., Ltd. (Dalian, China). Cells were cultured at 37 °C with 5% CO2, using DMEM or RPMI 1640 medium (Meilunbio, Dalian, China) with 10% (v/v) fetal bovine serum (Gibco, San Diego, CA, USA) and 1% (v/v) penicillin and streptomycin (Meilunbio, Dalian, China). CCK-8 assay was used to determine the inhibitory effect in vitro. In short, cells were incubated into 96-well plates at the rate of 5000 cells per well. After 24 h of incubation, 100 μL medium was added, which contained a specific concentration of the test compound. After 72 h, 10 μL CCK-8 regent was added and the plate was incubated at 37 °C, 5% CO2 for 1 h. The optical density of each hole at 450 nm was read by a BioTek TS-800 microplate reader. GraphPad Prism 9.3.1 software was used to calculate the IC50 value.

[3] = system: HCT-116 cells; assay: CCK-8 cell viability assay, HCT-116; format: cell-based; conditions: Homo sapiens, mean (n = 3)
Description: as §1

T1 sequence (P42336 whole entry): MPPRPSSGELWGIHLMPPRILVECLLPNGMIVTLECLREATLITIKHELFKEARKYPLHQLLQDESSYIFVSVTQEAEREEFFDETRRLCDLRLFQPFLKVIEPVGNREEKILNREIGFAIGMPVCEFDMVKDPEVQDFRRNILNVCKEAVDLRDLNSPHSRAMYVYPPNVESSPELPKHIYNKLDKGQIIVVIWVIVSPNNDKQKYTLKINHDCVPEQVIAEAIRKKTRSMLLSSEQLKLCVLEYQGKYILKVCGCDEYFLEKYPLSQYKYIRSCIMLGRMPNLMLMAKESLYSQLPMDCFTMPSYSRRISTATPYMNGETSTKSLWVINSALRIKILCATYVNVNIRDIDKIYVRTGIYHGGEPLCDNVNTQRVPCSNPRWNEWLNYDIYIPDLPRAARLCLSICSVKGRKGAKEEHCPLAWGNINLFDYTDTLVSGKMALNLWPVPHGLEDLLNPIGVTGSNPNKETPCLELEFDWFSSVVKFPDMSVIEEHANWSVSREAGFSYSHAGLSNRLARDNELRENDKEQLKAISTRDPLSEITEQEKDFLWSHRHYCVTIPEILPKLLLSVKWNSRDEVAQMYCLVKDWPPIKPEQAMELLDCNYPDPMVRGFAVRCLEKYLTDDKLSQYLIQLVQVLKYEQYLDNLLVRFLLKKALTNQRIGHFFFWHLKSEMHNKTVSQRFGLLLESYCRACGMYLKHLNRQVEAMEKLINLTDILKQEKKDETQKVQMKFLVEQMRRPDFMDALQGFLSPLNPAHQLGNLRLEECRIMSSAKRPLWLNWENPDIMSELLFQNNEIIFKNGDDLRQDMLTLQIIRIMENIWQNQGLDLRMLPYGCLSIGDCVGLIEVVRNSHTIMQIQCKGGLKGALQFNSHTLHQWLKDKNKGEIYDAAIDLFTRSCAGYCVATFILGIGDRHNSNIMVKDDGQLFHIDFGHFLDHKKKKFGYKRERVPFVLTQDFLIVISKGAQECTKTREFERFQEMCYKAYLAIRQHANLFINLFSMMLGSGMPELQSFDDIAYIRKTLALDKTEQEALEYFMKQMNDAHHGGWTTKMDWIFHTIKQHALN
T1 sequence (P27986 whole entry partner): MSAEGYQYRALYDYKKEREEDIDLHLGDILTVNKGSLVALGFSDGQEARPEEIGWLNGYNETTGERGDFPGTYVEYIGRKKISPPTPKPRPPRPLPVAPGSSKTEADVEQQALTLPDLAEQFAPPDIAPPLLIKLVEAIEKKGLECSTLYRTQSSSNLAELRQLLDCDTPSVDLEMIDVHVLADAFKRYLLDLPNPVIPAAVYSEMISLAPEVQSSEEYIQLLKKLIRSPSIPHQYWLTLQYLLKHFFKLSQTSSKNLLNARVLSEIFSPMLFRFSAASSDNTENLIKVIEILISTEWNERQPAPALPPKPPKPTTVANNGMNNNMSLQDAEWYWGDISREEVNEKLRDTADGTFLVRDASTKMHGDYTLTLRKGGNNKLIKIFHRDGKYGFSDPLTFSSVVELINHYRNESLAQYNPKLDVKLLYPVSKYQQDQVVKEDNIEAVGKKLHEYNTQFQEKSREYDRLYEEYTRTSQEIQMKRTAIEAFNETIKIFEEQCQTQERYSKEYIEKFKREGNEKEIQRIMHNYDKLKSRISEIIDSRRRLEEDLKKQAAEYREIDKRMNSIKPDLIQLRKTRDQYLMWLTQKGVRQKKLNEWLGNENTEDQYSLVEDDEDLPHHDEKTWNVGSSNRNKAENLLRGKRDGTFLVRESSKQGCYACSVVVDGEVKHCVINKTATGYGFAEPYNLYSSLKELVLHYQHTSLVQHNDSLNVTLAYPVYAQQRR

Compound	inhibition at 0.001 µM ([1]; Table 1)	IC50 ([2]; Table 1)	IC50 ([3]; Table 1, 72 h)	inhibition at 0.001 µM ([1]; Table 3)	IC50 ([2]; Table 3)	IC50 ([3]; Table 3, 72 h)	further results
COc1ncc(-c2cnc3ncnc(NCCN(C)C)c3c2)cc1NS(=O)(=O)c1ccc(F)cc1F [17d, N-(5-(4-((2-(dimethylamino)ethyl)amino)pyrido[2,3-d]pyrimidin-6-yl)-2-methoxypyridin-3-yl)-2,4-difluorobenzenesulfonamide]							inhibition at 0.001 µM ([1]; Table 2): 31%; IC50 ([2]; Table 2): 0.73 ± 0.19 µM; IC50 ([3]; Table 2, 72 h): 0.52 ± 0.23 µM
COc1ncc(-c2ccc3nccc(-c4ncc(C(=O)NC5CC5)o4)c3c2)cc1NS(=O)(=O)c1ccc(F)cc1F [22d, N-cyclopropyl-2-(6-(5-((2,4-difluorophenyl)sulfonamido)-6-methoxypyridin-3-yl)quinolin-4-yl)oxazole-5-carboxamide]				82%	0.46 ± 0.11 µM	0.1 ± 0.06 µM	IC50 [1]: 0.22 nM
COc1ncc(-c2cnc3ncnc(NC(C)C)c3c2)cc1NS(=O)(=O)c1ccc(F)cc1F [17a, 2,4-difluoro-N-(5-(4-(isopropylamino)pyrido[2,3-d]pyrimidin-6-yl)-2-methoxypyridin-3-yl)benzenesulfonamide]							inhibition at 0.001 µM ([1]; Table 2): 39%; IC50 ([2]; Table 2): 0.85 ± 0.3 µM; IC50 ([3]; Table 2, 72 h): 0.59 ± 0.15 µM
CCOC(=O)c1cnc(-c2ccnc3ccc(-c4cnc(OC)c(NS(=O)(=O)c5ccc(F)cc5F)c4)cc23)o1 [22a, Ethyl-2-(6-(5-((2,4-difluorophenyl)sulfonamido)-6-methoxypyridin-3-yl)quinolin-4-yl)oxazole-5-carboxylate]				20%	> 1 µM	> 1 µM	
COc1ncc(-c2ccc3nccc(-c4ncc(C(=O)NCC5CC5)o4)c3c2)cc1NS(=O)(=O)c1ccc(F)cc1F [22h, N-(cyclopropylmethyl)-2-(6-(5-((2,4-difluorophenyl)sulfonamido)-6-methoxypyridin-3-yl)quinolin-4-yl)oxazole-5-carboxamide]				78%	0.35 ± 0.11 µM	0.06 ± 0.01 µM	IC50 [1]: 0.37 nM
CNC(=O)c1cnc(-c2ccnc3ccc(-c4cnc(OC)c(NS(=O)(=O)c5ccc(F)cc5F)c4)cc23)o1 [22b, 2-(6-(5-((2,4-difluorophenyl)sulfonamido)-6-methoxypyridin-3-yl)quinolin-4-yl)-N-methyloxazole-5-carboxamide]				74%	0.39 ± 0.08 µM	0.15 ± 0.04 µM	
COc1ncc(-c2cnc3ncnc(NCCO)c3c2)cc1NS(=O)(=O)c1ccc(F)cc1F [17h, N-(5-(4-((2-hydroxyethyl)amino)pyrido[2,3-d]pyrimidin-6-yl)-2-methoxypyridin-3-yl)-2,4-difluorobenzenesulfonamide]							inhibition at 0.001 µM ([1]; Table 2): 24%; IC50 ([2]; Table 2): 0.93 ± 0.48 µM; IC50 ([3]; Table 2, 72 h): 0.69 ± 0.12 µM
COCCNc1ncnc2ncc(-c3cnc(OC)c(NS(=O)(=O)c4ccc(F)cc4F)c3)cc12 [17j, N-(2-methoxy-5-(4-((2-methoxyethyl)amino)pyrido[2,3-d]pyrimidin-6-yl)pyridin-3-yl)-2,4-difluorobenzenesulfonamide]							inhibition at 0.001 µM ([1]; Table 2): 24%; IC50 ([2]; Table 2): 0.75 ± 0.25 µM; IC50 ([3]; Table 2, 72 h): 0.42 ± 0.12 µM
COCCNC(=O)c1cnc(-c2ccnc3ccc(-c4cnc(OC)c(NS(=O)(=O)c5ccc(F)cc5F)c4)cc23)o1 [22e, 2-(6-(5-((2,4-difluorophenyl)sulfonamido)-6-methoxypyridin-3-yl)quinolin-4-yl)-N-(2-methoxyethyl)oxazole-5-carboxamide]				69%	0.2 ± 0.09 µM	0.13 ± 0.05 µM	
COc1ncc(-c2ccc3nccc(-c4ncc(C(=O)NC5CCCCC5)o4)c3c2)cc1NS(=O)(=O)c1ccc(F)cc1F [22j, N-cyclohexyl-2-(6-(5-((2,4-difluorophenyl)sulfonamido)-6-methoxypyridin-3-yl)quinolin-4-yl)oxazole-5-carboxamide]				18%	> 1 µM	> 1 µM	
CCCCNC(=O)c1cnc(-c2ccnc3ccc(-c4cnc(OC)c(NS(=O)(=O)c5ccc(F)cc5F)c4)cc23)o1 [22g, N-butyl-2-(6-(5-((2,4-difluorophenyl)sulfonamido)-6-methoxypyridin-3-yl)quinolin-4-yl)oxazole-5-carboxamide]				55%	0.45 ± 0.09 µM	0.32 ± 0.09 µM	
COc1ncc(-c2ccc3nccc(-c4ncc(C(=O)NCC5CCCCC5)o4)c3c2)cc1NS(=O)(=O)c1ccc(F)cc1F [22i, N-(cyclohexylmethyl)-2-(6-(5-((2,4-difluorophenyl)sulfonamido)-6-methoxypyridin-3-yl)quinolin-4-yl)oxazole-5-carboxamide]				33%	1 ± 0.3 µM	0.77 ± 0.19 µM	
COc1ncc(-c2cnc3ncnc(NC4CC4)c3c2)cc1NS(=O)(=O)c1ccc(F)cc1F [17b, N-(5-(4-(cyclopropylamino)pyrido[2,3-d]pyrimidin-6-yl)-2-methoxypyridin-3-yl)-2,4-difluorobenzenesulfonamide]							inhibition at 0.001 µM ([1]; Table 2): 21%; IC50 ([2]; Table 2): 0.91 ± 0.39 µM; IC50 ([3]; Table 2, 72 h): 0.35 ± 0.17 µM

The next lines start with results.

inhibition at 0.001 µM ([1]; Table 1)	IC50 ([2]; Table 1)	IC50 ([3]; Table 1, 72 h)	inhibition at 0.001 µM ([1]; Table 3)	IC50 ([2]; Table 3)	IC50 ([3]; Table 3, 72 h)	Compound	further results
40%	0.51 ± 0.11 µM	0.19 ± 0.12 µM				COc1ncc(-c2ccc3c(c2)sc2c(NC4CC4)ncnc23)cc1NS(=O)(=O)c1ccc(F)cc1F [11d, N-(5-(4-(cyclopropylamino)benzo[4,5]thieno[3,2-d]pyrimidin-7-yl)-2-methoxypyridin-3-yl)-2,4-difluorobenzenesulfonamide]	
29%	0.85 ± 0.37 µM	0.59 ± 0.18 µM				COc1ncc(-c2ccc3c(c2)sc2c(NCCO)ncnc23)cc1NS(=O)(=O)c1ccc(F)cc1F [11c, N-(5-(4-((2-hydroxyethyl)amino)benzo[4,5]thieno[3,2-d]pyrimidin-7-yl)-2-methoxypyridin-3-yl) -2,4-difluoro-benzenesulfonamide]	
35%	> 1 µM	> 1 µM				COCCCNc1ncnc2c1sc1cc(-c3cnc(OC)c(NS(=O)(=O)c4ccc(F)cc4F)c3)ccc12 [11e, N-(2-methoxy-5-(4-((3-methoxypropyl)amino)benzo[4,5]thieno[3,2-d]pyrimidin-7-yl)pyridin-3-yl)-2,4-difluorobenzenesulfonamide]	
13%	0.69 ± 0.11 µM	0.25 ± 0.08 µM				COc1ncc(-c2ccc3c(c2)sc2c(OCCN(C)C)ncnc23)cc1NS(=O)(=O)c1ccc(F)cc1F [11k, N-(5-(4-(2-(dimethylamino)ethoxy)benzo[4,5]thieno[3,2-d]pyrimidin-7-yl)-2-methoxypyridin-3-yl)-2,4-difluorobenzenesulfonamide]	
10%	0.96 ± 0.23 µM	> 1 µM				COc1ncc(-c2ccc3c(c2)sc2c(N4CCOCC4)ncnc23)cc1NS(=O)(=O)c1ccc(F)cc1F [11a, 2,4-difluoro-N-(2-methoxy-5-(4-morpholinobenzo[4,5]thieno[3,2-d]pyrimidin-7-yl)pyridin-3-yl)benzenesulfonamide]	
44%	0.53 ± 0.16 µM	0.22 ± 0.08 µM				COc1ncc(-c2ccc3c(c2)sc2c(NC(C)C)ncnc23)cc1NS(=O)(=O)c1ccc(F)cc1F [11g, N-(5-(4-(isopropylamino)benzo[4,5]thieno[3,2-d]pyrimidin-7-yl)-2-methoxypyridin-3-yl)-2,4-difluorobenzenesulfonamide]	
15%	> 1 µM	> 1 µM				CCCCNc1ncnc2c1sc1cc(-c3cnc(OC)c(NS(=O)(=O)c4ccc(F)cc4F)c3)ccc12 [11i, N-(5-(4-(butylamino)benzo[4,5]thieno[3,2-d]pyrimidin-7-yl)-2-methoxypyridin-3-yl)-2,4-difluorobenzenesulfonamide]	
18%	0.86 ± 0.12 µM	> 1 µM				COCCOc1ncnc2c1sc1cc(-c3cnc(OC)c(NS(=O)(=O)c4ccc(F)cc4F)c3)ccc12 [11l, N-(2-methoxy-5-(4-(2-methoxyethoxy)benzo[4,5]thieno[3,2-d]pyrimidin-7-yl)pyridin-3-yl)-2,4-difluorobenzenesulfonamide]	
10%	0.69 ± 0.25 µM	0.77 ± 0.21 µM				COc1ncc(-c2ccc3c(c2)sc2c(NCCN)ncnc23)cc1NS(=O)(=O)c1ccc(F)cc1F [11f, N-(5-(4-((2-aminoethyl)amino)benzo[4,5]thieno[3,2-d]pyrimidin-7-yl)-2-methoxypyridin-3-yl)-2,4-difluorobenzenesulfonamide]	
			78%	0.29 ± 0.1 µM	0.06 ± 0.02 µM	COCCCNC(=O)c1cnc(-c2ccnc3ccc(-c4cnc(OC)c(NS(=O)(=O)c5ccc(F)cc5F)c4)cc23)o1 [22f, 2-(6-(5-((2,4-difluorophenyl)sulfonamido)-6-methoxypyridin-3-yl)quinolin-4-yl)-N-(3-methoxypropyl)oxazole-5-carboxamide]	IC50 [1]: 0.38 nM
